# What was measured:
# [1] = Test 4: Inhibition of Cellular Release of Amyloid Peptide 1-40; type: cell-based, Chinese hamster; conditions: Cricetulus griseus; CHO cells with human APP, 24 hours with compound; read-out: Test 4 Amyloid-β1-40 release IC50
# Method: The cells are plated at a density of 8000 cells/well into 96-well microtiter plates and cultivated for 24 hours in DMEM cell culture medium containing 10% FCS. The test compound is added to the cells at various concentrations, and the cells are cultivated for 24 hours in the presence of the test compound. […] The potency of the compound is calculated from the percentage of inhibition of amyloid peptide release as a function of the test compound concentration.
# Human BACE-1 = Human BACE-1 (Homo sapiens (Human), UniProt P56817); test: Test 1: Inhibition of Human BACE-1; type: biochemical; conditions: recombinant BACE-1, pH 4.5, 1 hour preincubation
# Human BACE-1, sequence (P56817 46-457): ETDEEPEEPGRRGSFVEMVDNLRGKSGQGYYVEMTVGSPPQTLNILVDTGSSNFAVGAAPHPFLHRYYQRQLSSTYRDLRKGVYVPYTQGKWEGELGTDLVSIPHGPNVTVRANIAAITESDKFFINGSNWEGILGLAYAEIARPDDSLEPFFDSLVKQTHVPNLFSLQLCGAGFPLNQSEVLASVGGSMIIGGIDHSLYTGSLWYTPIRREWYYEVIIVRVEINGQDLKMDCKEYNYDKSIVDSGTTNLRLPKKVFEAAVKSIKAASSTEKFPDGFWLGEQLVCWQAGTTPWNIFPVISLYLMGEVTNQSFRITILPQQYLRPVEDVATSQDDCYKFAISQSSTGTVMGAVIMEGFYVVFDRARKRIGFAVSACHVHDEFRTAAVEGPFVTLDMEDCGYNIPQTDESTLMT
# Method: Test 1: Inhibition of Human BACE-1
# (§1) Recombinant BACE-1 (extracellular domain, expressed in baculovirus and purified using standard methods) at 0.1 to 1 nM concentrations is incubated with the test compound at various concentrations for 1 hour at room temperature in 100 mM acetate buffer, pH 4.5, containing 0.1% CHAPS. Activity was measured using a final concentration of 3 μM of the fluorescence-quenched substrate Q-C(HSO3)-Ile-Asp-Leu-Ala-Val-Leu-Asp-HN—CH2—CH2-Mca, where Q=2-nitro-5-amino benzoic acid and Mca=7-methoxy-4-coumarinyl acetic acid. Catalytic turnover was monitored in a Spectramax Gemini fluorescence plate reader (Molecular Devices) in black 96-well microplates using excitation/emission wavelength of 325 nm and 400 nm, respectively. Fluorescence increase was followed for 15 min, in 1 minute's intervals. The fluorescence/time slopes were calculated from duplicate wells and from wells without inhibitor and the IC50 values were calculated using a logistic 4-parameter model.
# Human BACE-2 = Human BACE-2 (Homo sapiens (Human), UniProt Q9Y5Z0); test: Test 2: Inhibition of Human BACE-2; type: biochemical; conditions: recombinant BACE-2, pH 4.5, 1 hour preincubation
# Human BACE-2, sequence (Q9Y5Z0 63-473): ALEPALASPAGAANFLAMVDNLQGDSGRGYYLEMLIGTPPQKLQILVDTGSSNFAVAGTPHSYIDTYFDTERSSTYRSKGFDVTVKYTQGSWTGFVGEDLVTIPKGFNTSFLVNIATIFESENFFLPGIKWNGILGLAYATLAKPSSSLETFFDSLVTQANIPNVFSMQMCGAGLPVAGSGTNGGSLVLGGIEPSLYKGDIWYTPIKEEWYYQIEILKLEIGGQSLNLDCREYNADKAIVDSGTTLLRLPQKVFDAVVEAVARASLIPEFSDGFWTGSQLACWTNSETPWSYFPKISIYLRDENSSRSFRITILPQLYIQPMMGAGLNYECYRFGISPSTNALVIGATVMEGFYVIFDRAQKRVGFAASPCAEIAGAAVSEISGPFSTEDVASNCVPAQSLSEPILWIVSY
# Method: Test 2: Inhibition of Human BACE-2
# as §1, with “BACE-2” for “BACE-1”
SMILES,IC50 [1],IC50 (Human BACE-1),IC50 (Human BACE-2)
"COCC#Cc1cnc(C(=O)Nc2ccc(F)c([C@@]3(C)N=C(N)OCC3(F)F)n2)c(N)c1 [Example 14, 3-Amino-5-(3-methoxy-prop-1-ynyl)-pyridine-2-carboxylic acid [6-((R)-2-amino-5,5-difluoro-4-methyl-5,6-dihydro-4H-[1,3]oxazin-4-yl)-5-fluoro-pyridin-2-yl]-amide]",540 nM,,
"C[C@]1(c2nc(NC(=O)c3ncc(Cl)cc3Cl)ccc2F)N=C(N)OCC1(F)F [Example 9, 3,5-Dichloro-pyridine-2-carboxylic acid [6-((R)-2-amino-5,5-difluoro-4-methyl-5,6-dihydro-4H-[1,3]oxazin-4-yl)-5-fluoro-pyridin-2-yl]-amide]",12 nM,18 nM,4 nM
"C[C@]1(c2nc(NC(=O)c3ncc(OCF)nc3N)ccc2F)N=C(N)OCC1(F)F [Example 15, 3-Amino-5-fluoromethoxy-pyrazine-2-carboxylic acid [6-((R)-2-amino-5,5-difluoro-4-methyl-5,6-dihydro-4H-[1,3]oxazin-4-yl)-5-fluoro-pyridin-2-yl]-amide]",30 nM,110 nM,730 nM
"C[C@]1(c2nc(NC(=O)c3ncc(C(F)F)cc3N)ccc2F)N=C(N)OCC1(F)F [Example 33, 3-Amino-5-difluoromethyl-pyridine-2-carboxylic acid [6-((R)-2-amino-5,5-difluoro-4-methyl-5,6-dihydro-4H-[1,3]oxazin-4-yl)-5-fluoro-pyridin-2-yl]-amide]",66 nM,140 nM,260 nM
"CC(F)(F)c1cnc(C(=O)Nc2ccc(F)c([C@@]3(C)N=C(N)OCC3(F)F)n2)c(N)n1 [Example 37, 3-Amino-5-(1,1-difluoro-ethyl)-pyrazine-2-carboxylic acid [6-((R)-2-amino-5,5-difluoro-4-methyl-5,6-dihydro-4H-[1,3]oxazin-4-yl)-5-fluoro-pyridin-2-yl]-amide]",310 nM,64 nM,> 10000 nM
"C[C@]1(c2nc(NC(=O)c3ncc(Cl)cc3N)ccc2F)N=C(N)OCC1(F)F [Example 19, 3-Amino-5-chloro-pyridine-2-carboxylic acid [6-((R)-2-amino-5,5-difluoro-4-methyl-5,6-dihydro-4H-[1,3]oxazin-4-yl)-5-fluoro-pyridin-2-yl]-amide]",45 nM,60 nM,48 nM
"C[C@]1(c2nc(NC(=O)c3ncc(OCCCF)nc3N)ccc2F)N=C(N)OCC1(F)F [Example 12, 3-Amino-5-(3-fluoro-propoxy)-pyrazine-2-carboxylic acid [6-((R)-2-amino-5,5-difluoro-4-methyl-5,6-dihydro-4H-[1,3]oxazin-4-yl)-5-fluoro-pyridin-2-yl]-amide]",310 nM,1200 nM,> 10000 nM
"C[C@]1(c2nc(NC(=O)c3ncc(C(F)F)nc3N)ccc2F)N=C(N)OCC1(F)F [Example 22, 3-Amino-5-difluoromethyl-pyrazine-2-carboxylic acid [6-((R)-2-amino-5,5-difluoro-4-methyl-5,6-dihydro-4H-[1,3]oxazin-4-yl)-5-fluoro-pyridin-2-yl]-amide]",60 nM,190 nM,580 nM
"CCOc1cnc(C(=O)Nc2ccc(F)c([C@@]3(C)N=C(N)OCC3(F)F)n2)c(Cl)c1 [Example 27, 3-Chloro-5-ethoxy-pyridine-2-carboxylic acid [6-((R)-2-amino-5,5-difluoro-4-methyl-5,6-dihydro-4H-[1,3]oxazin-4-yl)-5-fluoro-pyridin-2-yl]-amide]",450 nM,290 nM,420 nM
"C[C@]1(c2nc(NC(=O)c3ncc(OCF)cc3Cl)ccc2F)N=C(N)OCC1(F)F [Example 26, 3-Chloro-5-fluoromethoxy-pyridine-2-carboxylic acid [6-((R)-2-amino-5,5-difluoro-4-methyl-5,6-dihydro-4H-[1,3]oxazin-4-yl)-5-fluoro-pyridin-2-yl]-amide]",57 nM,110 nM,27 nM
"COCC[C@]1(c2nc(NC(=O)c3ncc(C(F)(F)F)cc3Cl)ccc2F)N=C(N)OCC1(F)F [Example 6, 3-Chloro-5-trifluoromethyl-pyridine-2-carboxylic acid {6-[(R)-2-amino-5,5-difluoro-4-(2-methoxy-ethyl)-5,6-dihydro-4H-[1,3]oxazin-4-yl]-5-fluoro-pyridin-2-yl}-amide]",380 nM,650 nM,6600 nM
"C[C@]1(c2nc(NC(=O)c3ncc(OCC(F)F)nc3N)ccc2F)N=C(N)OCC1(F)F [Example 11, 3-Amino-5-(2,2-difluoro-ethoxy)-pyrazine-2-carboxylic acid [6-((R)-2-amino-5,5-difluoro-4-methyl-5,6-dihydro-4H-[1,3]oxazin-4-yl)-5-fluoro-pyridin-2-yl]-amide]",440 nM,830 nM,2900 nM
"C[C@]1(c2nc(NC(=O)c3ncc(C#CCO)cc3Cl)ccc2F)N=C(N)OCC1(F)F [Example 32, 3-Chloro-5-(3-hydroxy-prop-1-ynyl)-pyridine-2-carboxylic acid [6-((R)-2-amino-5,5-difluoro-4-methyl-5,6-dihydro-4H-[1,3]oxazin-4-yl)-5-fluoro-pyridin-2-yl]-amide]",19 nM,60 nM,930 nM
"C[C@]1(c2nc(NC(=O)c3ncc(OCCCl)nc3N)ccc2F)N=C(N)OCC1(F)F [Example 23, 3-Amino-5-(2-chloro-ethoxy)-pyrazine-2-carboxylic acid [6-((R)-2-amino-5,5-difluoro-4-methyl-5,6-dihydro-4H-[1,3]oxazin-4-yl)-5-fluoro-pyridin-2-yl]-amide]",2900 nM,8700 nM,> 10000 nM
"COCCc1cnc(C(=O)Nc2ccc(F)c([C@@]3(C)N=C(N)OCC3(F)F)n2)c(N)n1 [Example 29, 3-Amino-5-(2-methoxy-ethyl)-pyrazine-2-carboxylic acid [6-((R)-2-amino-5,5-difluoro-4-methyl-5,6-dihydro-4H-[1,3]oxazin-4-yl)-5-fluoro-pyridin-2-yl]-amide]",70 nM,150 nM,5600 nM
"C[C@]1(c2nc(NC(=O)c3ncc(C#CCO)cc3N)ccc2F)N=C(N)OCC1(F)F [Example 17, 3-Amino-5-(3-hydroxy-prop-1-ynyl)-pyridine-2-carboxylic acid [6-((R)-2-amino-5,5-difluoro-4-methyl-5,6-dihydro-4H-[1,3]oxazin-4-yl)-5-fluoro-pyridin-2-yl]-amide]",62 nM,240 nM,8200 nM
"C[C@]1(c2nc(NC(=O)c3ncc(OCCF)nc3N)ccc2F)N=C(N)OCC1(F)F [Example 25, 3-Amino-5-(2-fluoro-ethoxy)-pyrazine-2-carboxylic acid [6-((R)-2-amino-5,5-difluoro-4-methyl-5,6-dihydro-4H-[1,3]oxazin-4-yl)-5-fluoro-pyridin-2-yl]-amide]",480 nM,570 nM,> 10000 nM
"COCCOc1cnc(C(=O)Nc2ccc(F)c([C@@]3(C)N=C(N)OCC3(F)F)n2)c(N)n1 [Example 16, 3-Amino-5-(2-methoxy-ethoxy)-pyrazine-2-carboxylic acid [6-((R)-2-amino-5,5-difluoro-4-methyl-5,6-dihydro-4H-[1,3]oxazin-4-yl)-5-fluoro-pyridin-2-yl]amide]",,120 nM,8900 nM
COCC[C@@]1(c2nc(NC(=O)c3ncc(C#N)cc3C)ccc2F)N=C(N)OCC1(F)F [Example 5],> 10000 nM,,
"CC(F)(F)c1cnc(C(=O)Nc2ccc(F)c([C@@]3(C)N=C(N)OCC3(F)F)n2)c(Cl)c1 [Example 36, 3-Chloro-5-(1,1-difluoro-ethyl)-pyridine-2-carboxylic acid [6-((R)-2-amino-5,5-difluoro-4-methyl-5,6-dihydro-4H-[1,3]oxazin-4-yl)-5-fluoro-pyridin-2-yl]-amide]",58 nM,,
"COc1cnc(C(=O)Nc2ccc(F)c([C@@]3(C)N=C(N)OCC3(F)F)n2)c(C)c1 [Example 13, 5-Methoxy-3-methyl-pyridine-2-carboxylic acid [6-((R)-2-amino-5,5-difluoro-4-methyl-5,6-dihydro-4H-[1,3]oxazin-4-yl)-5-fluoro-pyridin-2-yl]-amide]",82 nM,,

# Source: patent US9163011B2, “Oxazine derivatives and their use in the treatment of disease” (NOVARTIS AG, priority 2011, dated 2015)
